From patent US20250177351A1, “ISOINDOLINE COMPOSITIONS AND METHODS FOR TREATING NEURODEGENERATIVE DISEASE” (Cognition Therapeutics, Inc., priority 2022, published 2025)

Assays:
[1] = test system: CSF biomarkers (Aβ42, Aβ40, total tau, phosphorylated tau, NFL and neurogranin); experiment: Phase 1b/2a trial: CSF Alzheimer's disease biomarkers by ELISA; format: in vivo, human; conditions: AD patients, before and after treatment
Procedure: (§1) COG0102 clinical trial: This trial (ClinicalTrials.gov NCT02907567) was a randomized, double-blind, placebo-controlled clinical trial in mild to moderate Alzheimer's patients (MMSE 18-26) (See FIG. 1 for clinical trial design). The trial was conducted at six sites in Australia. Patients were randomized into placebo (n=5) or CT1812-treated groups: 90 mg (n=4), 280 mg (n=5) or 560 mg (n=5) and treated once daily for 28 days. Clinical chemistry was done at Sydpath (Sydney, AU). Pharmacokinetics were done at CPR Pharma Services (Adelaide, AU). Cerebrospinal fluid samples were taken at screening and day 21-28 of treatment and aliquoted. […] One set of CSF samples was analyzed for Alzheimer's disease biomarkers; protein measurements (Aβ42, Aβ40, total tau, tau phosphorylated at threonine 181 (phosphorylated tau), NFL and neurogranin) were performed using commercially available ELISA assays from Fujirebio according to the manufacturer's instructions (INNOTEST β-AMYLOID(1-42), INNOTEST β-AMYLOID(1-40), INNOTEST hTau Ag, INNOTEST PHOSPHO-TAU(181P), Uman Diagnostics NFL assay). Neurogranin was measured with a sandwich ELISA method using antibodies Ng2 and Ng22 developed at the University of Gotteborg (Kvartsberg et al. 2015). Identical aliquots of CSF, and plasma were analyzed for protein expression changes via LC/MSMS at Caprion (see below).

[2] = biological target: T1, Sigma-2/PGRMC1 receptor complex (Homo sapiens, UniProt Q5BJF2); experiment: Phase 1b/2a trial: pharmacokinetics and estimated brain receptor occupancy; format: in vivo; conditions: AD patients, 90-560 mg, day 28
T1 construct: from tissue; host or cells: brain of trial patients, in vivo (occupancy estimated from CSF drug concentration, not measured)
Procedure: as §1

[3] = Phase 1 MAD study: safety assessments; format: in vivo, human
Procedure: In Part B, healthy young subjects in each cohort received the same dose once daily for 14 days after overnight fasting. Cohort dosing started at 280 mg, followed by 560 mg and 840 mg in subsequent cohorts. In each cohort, eight subjects received drug and two received placebo. A fourth cohort of healthy elderly subjects (≥65 years old) received a 560 mg dose vs. placebo daily for 14 days (seven active, two placebo).
Subjects were dosed in the morning with 240 mL of water after an 8-hour fast, and remained in a semi-reclined position for 1 hour and fasting for 2 hours post-administration, except for the fed cohort in Part A. Subjects in each MAD cohort were confined to the clinical facility from check-in on Day 0 until the pharmacokinetic sample was collected on Day 16, 48 hours after administration of the last dose on Day 14. Subjects returned to the clinical facility for follow-up visits on Days 24 and 35.
Safety variables, including incidence of adverse events (AEs), vital signs, clinical laboratory findings, 12-lead electrocardiographs (ECGs), physical examination, and affective and cognitive measures (Part B only), were summarized for all subjects who received study drug.

[4] = MAD, age ≤ 64 years, 280 mg (n = 8)
[5] = MAD, age ≤ 64 years, 560 mg (n = 8)
[6] = MAD, age ≤ 64 years, 840 mg (n = 8)
[7] = MAD, age ≥ 65 years, 560 mg (n = 7)

T1 sequence (Q5BJF2 whole entry, one chain of several): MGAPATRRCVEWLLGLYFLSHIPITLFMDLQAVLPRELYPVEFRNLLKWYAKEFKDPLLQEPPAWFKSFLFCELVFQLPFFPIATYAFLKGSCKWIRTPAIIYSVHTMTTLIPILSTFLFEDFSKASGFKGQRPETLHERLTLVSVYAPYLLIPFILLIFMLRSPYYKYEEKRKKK

CC(C)(C)Oc1cc(CCC(C)(C)N2Cc3ccc(S(C)(=O)=O)cc3C2)ccc1O [CT1812]
biomarker levels (Aβ, tau, NFL) in CSF [1]: remain unchanged | increase of plasma concentration with dose [2]: approximately dose proportionally | tolerability ([3]; 280 mg to 840 mg QD for 14 days, healthy subjects): well tolerated | ECG ([3]; MAD): No ECG parameters or changes were assessed as clinically significant | Number of Subjects with TEAE: Back pain ([3]; MAD Total Active (n = 31)): 2 | Number of Subjects with TEAE: Catheter site phlebitis ([3]; MAD Total Active (n = 31)): 2 | Number of Subjects with TEAE: Dizziness ([3]; MAD Total Active (n = 31)): 3 | Number of Subjects with TEAE: Dyspepsia ([3]; MAD Total Active (n = 31)): 3 | Number of Subjects with TEAE: Headache ([3]; MAD Total Active (n = 31)): 10 | Number of Subjects with TEAE: Nausea ([3]; MAD Total Active (n = 31)): 2 | Number of Subjects with TEAE: Procedural pain ([3]; MAD Total Active (n = 31)): 6 | Number of Subjects with TEAE: Upper respiratory tract infection ([3]; MAD Total Active (n = 31)): 8 | Number of Subjects with TEAE: Vomiting ([3]; MAD Total Active (n = 31)): 2 | Number of Subjects with at least one Treatment-Emergent AE: All TEAES ([3]; MAD Total Active (n = 31)): 25 | Number of Subjects with TEAE: Dizziness [3, 4]: 1 | Number of Subjects with TEAE: Dyspepsia [3, 4]: 1 | Number of Subjects with TEAE: Headache [3, 4]: 2 | Number of Subjects with TEAE: Nausea [3, 4]: 1 | Number of Subjects with TEAE: Upper respiratory tract infection [3, 4]: 5 | Number of Subjects with at least one Treatment-Emergent AE: All TEAES [3, 4]: 7 | Number of Subjects with TEAE: Catheter site phlebitis [3, 5]: 1 | Number of Subjects with TEAE: Dyspepsia [3, 5]: 1 | Number of Subjects with TEAE: Headache [3, 5]: 1 | Number of Subjects with TEAE: Procedural pain [3, 5]: 4 | Number of Subjects with TEAE: Upper respiratory tract infection [3, 5]: 1 | Number of Subjects with at least one Treatment-Emergent AE: All TEAES [3, 5]: 7 | Number of Subjects with TEAE: Back pain [3, 6]: 1 | Number of Subjects with TEAE: Catheter site phlebitis [3, 6]: 1 | Number of Subjects with TEAE: Dizziness [3, 6]: 1 | Number of Subjects with TEAE: Dyspepsia [3, 6]: 1 | Number of Subjects with TEAE: Headache [3, 6]: 4 | Number of Subjects with TEAE: Nausea [3, 6]: 1 | Number of Subjects with TEAE: Procedural pain [3, 6]: 2 | Number of Subjects with TEAE: Upper respiratory tract infection [3, 6]: 2 | Number of Subjects with TEAE: Vomiting [3, 6]: 2 | Number of Subjects with at least one Treatment-Emergent AE: All TEAES [3, 6]: 6 | Number of Subjects with TEAE: Back pain [3, 7]: 1 | Number of Subjects with TEAE: Dizziness [3, 7]: 1 | Number of Subjects with TEAE: Headache [3, 7]: 3 | Number of Subjects with at least one Treatment-Emergent AE: All TEAES [3, 7]: 5 | serious AE (SAE) ([3]; MAD, subject on 840 mg, respiratory picornavirus infection deemed unrelated to study treatment): One | subjects developing a rash ([3]; MAD, improvement after discontinuing CT1812): One | subjects with increase in liver function tests below 3× the upper limit of normal ([3]; MAD, including one subject on placebo): Four
